Test results taken from the NIST ThermoML archive (doi:10.1016/j.jct.2007.11.002).
± gives the expanded uncertainty stated by the source.

Assay: xn = mol fraction of the nth substance listed
Details: 101 kPa, Liquid; for viscosity: Capillary tube (Ostwald / Ubbelohde) method

CN1CCOCC1 [N-methylmorpholine] + c1ccccc1
Details | mass density, 298.15 K [kg/m3] | mass density, 303.15 K [kg/m3] | viscosity, 298.15 K [mPa·s] | viscosity, 303.15 K [mPa·s]
x2 = 0.0554 | 912.69 ± 1 | 907.91 ± 1 | 0.847 ± 0.011 | 0.836 ± 0.011
x2 = 0.1167 | 911.11 ± 0.93 | 906.07 ± 0.93 | 0.814 ± 0.011 | 0.805 ± 0.01
x2 = 0.1798 | 909.39 ± 0.86 | 904.33 ± 0.87 | 0.783 ± 0.01 | 0.772 ± 0.01
x2 = 0.2477 | 907.18 ± 0.8 | 902.35 ± 0.81 | 0.753 ± 0.009 | 0.741 ± 0.009
x2 = 0.2855 | 906.2 ± 0.77 | 901.15 ± 0.78 | 0.737 ± 0.009 | 0.725 ± 0.009
x2 = 0.3422 | 904.33 ± 0.72 | 899.41 ± 0.73 | 0.715 ± 0.009 | 0.7 ± 0.009
x2 = 0.3762 | 903.31 ± 0.7 | 898.32 ± 0.71 | 0.704 ± 0.009 | 0.688 ± 0.009
x2 = 0.4244 | 901.72 ± 0.66 | 896.71 ± 0.67 | 0.687 ± 0.008 | 0.671 ± 0.008
x2 = 0.479 | 899.69 ± 0.63 | 894.8 ± 0.64 | 0.672 ± 0.008 | 0.656 ± 0.008
x2 = 0.5466 | 897 ± 0.59 | 892.15 ± 0.6 | 0.655 ± 0.008 | 0.637 ± 0.008
x2 = 0.5911 | 895.2 ± 0.57 | 890.3 ± 0.58 | 0.646 ± 0.008 | 0.628 ± 0.008
x2 = 0.6201 | 893.8 ± 0.56 | 889.05 ± 0.57 | 0.641 ± 0.008 | 0.622 ± 0.008
x2 = 0.6822 | 891 ± 0.54 | 886.21 ± 0.55 | 0.631 ± 0.008 | 0.61 ± 0.007
x2 = 0.7094 | 889.5 ± 0.53 | 884.9 ± 0.54 | 0.628 ± 0.007 | 0.606 ± 0.007
x2 = 0.7655 | 886.8 ± 0.51 | 882.04 ± 0.52 | 0.625 ± 0.007 | 0.6 ± 0.007
x2 = 0.7901 | 885.2 ± 0.51 | 880.63 ± 0.52 | 0.621 ± 0.007 | 0.597 ± 0.007
x2 = 0.8439 | 882.2 ± 0.5 | 877.64 ± 0.51 | 0.618 ± 0.007 | 0.589 ± 0.007
x2 = 0.8933 | 879.6 ± 0.49 | 874.81 ± 0.5 | 0.613 ± 0.007 | 0.583 ± 0.007
x2 = 0.9278 | 877.5 ± 0.49 | 872.82 ± 0.5 | 0.61 ± 0.007 | 0.578 ± 0.007
x2 = 0.9641 | 875.4 ± 0.49 | 870.63 ± 0.5 | 0.606 ± 0.007 | 0.571 ± 0.007
